This experiment deals with CDK2/Cyclin E1 full length (Homo sapiens (Human), UniProt P24941). The experiment in a line: CDK2/Cyclin E1 full length mobility shift assay. Type of experiment: biochemical.

As a reminder, the Ki is the equilibrium dissociation constant of an inhibitor or competing ligand from its target.

With `COc1cc(CC(=O)Nc2cc([C@@H]3CC[C@H](OC(=O)NC4CCOCC4)C3)[nH]n2)ccn1` [Example 503, (1S,3R)-3-(3-{[(2-methoxypyridin-4-yl)acetyl]amino}-1H-pyrazol-5-yl)cyclopentyl tetrahydro-2H-pyran-4-ylcarbamate], the Ki was determined as 2.13 nM. Regarding `COc1cc(CC(=O)Nc2cc([C@H]3CC[C@@H](OC(=O)NC4CCOCC4)C3)[nH]n2)ccn1` [Example 504, (1R,3S)-3-(3-{[(2-methoxypyridin-4-yl)acetyl]amino}-1H-pyrazol-5-yl)cyclopentyl tetrahydro-2H-pyran-4-ylcarbamate], the inhibition constant (Ki) was determined as 3.64 nM. With `O=C(Cc1cc(F)cc(F)c1)Nc1cc([C@H]2CC[C@@H](OC(=O)NC3CCOCC3)C2)[nH]n1` [Example 505, (1R,3S)-3-(3-{[(3,5-difluorophenyl)acetyl]amino}-1H-pyrazol-5-yl)cyclopentyl tetrahydro-2H-pyran-4-ylcarbamate], the Ki amounted to 1.6 nM. To `Cn1ccc(CC(=O)Nc2cc([C@H]3CC[C@@H](OC(=O)NC4(C)CCOCC4)C3)[nH]n2)n1` [Example 507, (1R,3S)-3-(3-{[(1-methyl-1H-pyrazol-3-yl)acetyl]amino}-1H-pyrazol-5-yl)cyclopentyl (4-methyltetrahydro-2H-pyran-4-yl)carbamate] belongs 3.69 nM. For `Cc1cnc(CC(=O)Nc2cc([C@H]3CC[C@@H](OC(=O)NC4(C)CCOCC4)C3)[nH]n2)o1` [Example 508, (1R,3S)-3-(3-{[(5-methyl-1,3-oxazol-2-yl)acetyl]amino}-1H-pyrazol-5-yl)cyclopentyl (4-methyltetrahydro-2H-pyran-4-yl)carbamate] the value was 1.46 nM.

`COc1cc(CC(=O)Nc2cc([C@@H]3CC[C@H](OC(=O)NCC4CCOCC4)C3)[nH]n2)ccn1` [Example 512, (1S,3R)-3-(3-{[(2-methoxypyridin-4-yl)acetyl]amino}-1H-pyrazol-5-yl)cyclopentyl (tetrahydro-2H-pyran-4-ylmethyl)carbamate]: the Ki came out at 3.2 nM.

Take `O=C(Cc1cc(F)cc(F)c1)Nc1cc([C@@H]2CC[C@H](OC(=O)NCC3CCOCC3)C2)[nH]n1` [Example 513, (1S,3R)-3-(3-{[(3,5-difluorophenyl)acetyl]amino}-1H-pyrazol-5-yl)cyclopentyl (tetrahydro-2H-pyran-4-ylmethyl)carbamate]: the Ki came out at 3.19 nM. To `O=C(Cc1ccc(C(F)(F)F)nc1)Nc1cc([C@@H]2CC[C@H](OC(=O)NCC3CCOCC3)C2)[nH]n1` [Example 514, (1S,3R)-3-[3-({[6-(trifluoromethyl)pyridin-3-yl]acetyl}amino)-1H-pyrazol-5-yl]cyclopentyl (tetrahydro-2H-pyran-4-ylmethyl)carbamate] belongs 2.78 nM. On to `COC[C@H](C)NC(=O)O[C@@H]1CC[C@H](c2cc(NC(=O)Cc3ccccc3)[nH]n2)C1` [Example 517, (1R,3S)-3-{5-[(phenylacetyl)amino]-1H-pyrazol-3-yl}cyclopentyl [(2S)-1-methoxypropan-2-yl]carbamate], for which the Ki was found to be 1.29 nM. For `COC[C@H](C)NC(=O)O[C@@H]1CC[C@H](c2cc(NC(=O)c3cc(OC)nn3C)n[nH]2)C1` [Example 518, (1R,3S)-3-(3-{[(3-methoxy-1-methyl-1H-pyrazol-5-yl)carbonyl]amino}-1H-pyrazol-5-yl)cyclopentyl [(2S)-1-methoxypropan-2-yl]carbamate], the inhibitory constant (Ki) turned out to be 1.43 nM. As to `COC[C@H](C)NC(=O)O[C@@H]1CC[C@H](c2cc(NC(=O)Cc3ccc(OC)nc3)n[nH]2)C1` [Example 519, (1R,3S)-3-(3-{[(6-methoxypyridin-3-yl)acetyl]amino}-1H-pyrazol-5-yl)cyclopentyl [(2S)-1-methoxypropan-2-yl]carbamate], the Ki is 0.56 nM.

With `COC[C@H](C)NC(=O)O[C@@H]1CC[C@H](c2cc(NC(=O)Cc3cnc(OC)cn3)n[nH]2)C1` [Example 520, (1R,3S)-3-(3-{[(5-methoxypyrazin-2-yl)acetyl]amino}-1H-pyrazol-5-yl)cyclopentyl [(2S)-1-methoxypropan-2-yl]carbamate], the Ki was found to be 2.88 nM.

The values are drawn from patent publication US11014911B2, “CDK2 inhibitors” (Pfizer Inc., priority 2019, dated 2021).
